The source of these data is publication PMC4050309, “Five New Guanacastane-Type Diterpenes from Cultures of the Fungus Psathyrella candolleana” (Natural Products and Bioprospecting, 2014).

Experiment [1] concerns the target T1, mouse 11β-HSD1 (11β-hydroxysteroid dehydrogenase) (Mus musculus, UniProt P50172).
T1 construct: gene Hsd11b1; full-length cDNA, microsomal fraction of stably transfected HEK-293 cells
The experiment in a line: scintillation proximity assay, [3H]cortisone to [3H]cortisol, microsomes overexpressing […]β-HSD1. Type of experiment: biochemical. (Scintillation proximity formats need no separation of bound from free tracer.)

Experiment [2] concerns the target T2, human 11β-HSD1 (11β-hydroxysteroid dehydrogenase) (Homo sapiens, UniProt P28845).
T2 construct: gene HSD11B1; full-length cDNA, microsomal fraction of stably transfected HEK-293 cells
The description is as above. The format is biochemical.

Structures are written as SMILES.

T2 sequence (P28845 whole entry): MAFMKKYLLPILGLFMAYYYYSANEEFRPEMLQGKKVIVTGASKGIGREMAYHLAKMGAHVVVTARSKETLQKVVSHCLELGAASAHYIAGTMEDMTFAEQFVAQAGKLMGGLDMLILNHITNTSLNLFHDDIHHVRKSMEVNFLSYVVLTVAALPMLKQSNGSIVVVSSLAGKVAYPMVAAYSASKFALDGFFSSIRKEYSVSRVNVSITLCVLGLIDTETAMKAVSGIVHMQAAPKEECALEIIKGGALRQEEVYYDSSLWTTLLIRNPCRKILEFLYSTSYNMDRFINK
T1 sequence (P50172 whole entry): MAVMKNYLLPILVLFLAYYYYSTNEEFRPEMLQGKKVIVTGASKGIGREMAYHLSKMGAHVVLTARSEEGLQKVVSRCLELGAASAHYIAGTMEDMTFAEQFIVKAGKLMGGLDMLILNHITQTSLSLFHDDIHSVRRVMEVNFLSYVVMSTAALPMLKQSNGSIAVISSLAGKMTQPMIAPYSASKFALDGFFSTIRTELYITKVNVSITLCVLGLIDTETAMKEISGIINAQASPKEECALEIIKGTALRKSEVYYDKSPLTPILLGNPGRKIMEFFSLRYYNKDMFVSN

In the case of `CC1(C)[C@@H](O[C@H]2O[C@H](C(=O)O)[C@@H](O)[C@H](O)[C@H]2O[C@@H]2O[C@H](C(=O)O)[C@@H](O)[C@H](O)[C@H]2O)CC[C@]2(C)[C@H]3C(=O)C=C4[C@@H]5C[C@@](C)(C(=O)O)CC[C@]5(C)CC[C@@]4(C)[C@]3(C)CC[C@@H]12` [glycyrrhizinic acid], the half-maximal inhibitory concentration (IC50) (usually the midpoint of a concentration-inhibition curve) in experiment [1] came out at 0.0065 µM; in experiment [2], 0.0042 µM.

Turning to `CC(C)C1=C(O)C(=O)C2=CC3=C(CO)C(=O)CC[C@@]3(C)CC[C@@]21C` [compound 3, Guanacastepene R], the IC50 in experiment [1] was found to be 13.9 µM; in experiment [2], 6.2 µM.
